Reference: ChEMBL document CHEMBL1201862, “PubChem BioAssay data set” (2004)
The source made the active and inactive calls.

Tests used:
[1] = target: T1, Disintegrin and metalloproteinase domain-containing protein 17 (Homo sapiens, UniProt P78536); assay: exosite inhibitors of ADAM17, dose response, biochemical (AID 743260)
[2] = ADAM10 protease inhibitors, dose response, selectivity assay for ADAM17 exosite inhibitor project, biochemical, FRET peptide substrate, recombinant human ADAM10 (AID 743259);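 further: ADAM10 enzyme cleaving a FRET peptide substrate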
[3] = Fluorescence-based cell-based high throughput dose response assay for inhibitors of the interaction of nucleotide-binding oligomerization domain containing 2 (NOD2) and the receptor-interacting serine-threonine kinase 2 (RIPK2).; assay type: functional; settings: Homo sapiens
Paired box protein Pax-8 = Paired box protein Pax-8 (Homo sapiens, UniProt Q06710); assay: inhibitors of PAX8-driven TPO luciferase reporter, dose response, RMG-I cells, cherry-pick (AID 687027); assay type: functional, cell-based;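 further: luciferase reporter driven by Pax8 target thyroperoxidase promoter measured by SteadyGlo luminescence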
[4] = PAX2 cell-based inhibition, dose response, selectivity assay for PAX8 inhibitor project, plate reader, dry powder samples (AID 743048); assay type: functional;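 further: HEK293 cells carrying a WT1 promoter luciferase reporter driven by expressed Pax2; potency is for inhibition of Pax2 driven reporter signal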
[5] = cytotoxicity in COV362 ovarian cancer cells, dose response, cytotoxicity control for PAX8 inhibitor project, cell-based, plate reader, dry powder, SA12 (AID 743144); assay type: functional
[6] = IOSE-T80 ovarian epithelial cell cytotoxicity, dose response, cytotoxicity control for PAX8 inhibitor project, plate reader, dry powder samples (AID 743045); assay type: functional, cell-based
[7] = A2780 ovarian cancer cell cytotoxicity, dose response, cytotoxicity control, plate reader, dry powder samples (AID 743046); assay type: functional, cell-based
[8] = NIH:OVCAR-3 ovarian cancer cell cytotoxicity, dose response, PAX8 inhibitor project, plate reader, dry powder samples (AID 743044); assay type: functional, cell-based
[9] = PAX5 activity inhibitors, dose response, selectivity assay for PAX8 inhibitor project, cell-based, plate reader, dry powder samples (AID 743047); assay type: functional;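 further: HEK293 cells carrying a Pax5 driven CD19 promoter luciferase reporter; potency of inhibitors that lower reporter luminescence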
[10] = IGROV1 ovarian cancer cell cytotoxicity, dose response, PAX8 inhibitor project, plate reader, dry powder samples (AID 743043); assay type: functional, cell-based; settings: IGROV-1
[11] = cytotoxicity in OVCAR4 cells, dose response, cytotoxicity control for PAX8 inhibitor project, cell-based, plate reader, dry powder, SA11 (AID 743150); assay type: functional; settings: OVCAR-4
[12] = cytotoxicity in COV434 cells, dose response, cytotoxicity control for PAX8 inhibitor project, cell-based, plate reader, dry powder, SA7 (AID 743145); assay type: functional
[13] = cytotoxicity in OV-90 ovarian cancer cells, dose response, PAX8 inhibitor project, cell-based, plate reader, dry powder, SA8 (AID 743149); assay type: functional
[14] = cytotoxicity dependent on PAX8, dose response, cell-based, plate reader, dry powder (AID 743049); assay type: functional
[15] = ADAM10 inhibitors, peptide cleavage, dose response, biochemical, QFRET (AID 743254);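 further: ADAM10 enzyme with the DM2 quenched FRET peptide as substrate; EDANS fluorescence gain as the protease cuts the substrate; inhibitor potency against ADAM10 proteolytic activity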
[16] = target: T1, Disintegrin and metalloproteinase domain-containing protein 17; assay: ADAM17 protease inhibitors, dose response, counter-screen for ADAM10 exosite inhibitor project, biochemical, quenched FRET substrate (AID 743253)
fMet-Leu-Phe receptor = fMet-Leu-Phe receptor (Homo sapiens, UniProt P21462); assay: FPR ligands, dose response (AID 519); assay type: functional
[17] = inhibitors of non-replicating M. tuberculosis, dose response, luciferase, dry powder (AID 651619); assay type: functional; settings: Mycobacterium tuberculosis
[18] = inhibitors of non-replicating M. tuberculosis, dose response, luciferase, dry powder (AID 651620); assay type: functional; settings: Mycobacterium tuberculosis
[19] = growth inhibition of replicating M. tuberculosis, dose response, counter-screen, dry powder, IC90 (AID 651617); assay type: functional; settings: Mycobacterium tuberculosis
[20] = intracellular Trypanosoma cruzi inhibitors in host cells – cell-based, plate reader, cherry-pick samples, set 3, dose response (AID 651818); assay type: functional;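 further: compounds incubated with infected cells for about four days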
[21] = HepG2 cell cytotoxicity, dose response, cytotoxicity control, cherry-picks, set 5 (AID 1053118); assay type: functional, cell-based
[22] = HEK293 cell cytotoxicity, dose response, cytotoxicity control, cherry-picks, set 5 (AID 1053117); assay type: functional, cell-based
[23] = A549 cell cytotoxicity, dose response, cytotoxicity control, cherry-picks, 26 µM top dose (AID 1053119); assay type: functional, cell-based
[24] = A375 melanoma cell viability loss, dose response, counter-screen for MITF inhibitor project, CellTiter-Glo luminescence, dry powder, set 4 (AID 624364); assay type: functional, cell-based; settings: A-375;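 further: A375 melanoma cells are MITF independent so this is a counter screen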
[25] = A375 melanoma cell cytotoxicity, dose response, counter-screen for MITF inhibitor project, CellTiter-Glo luminescence, dry powder, set 2 (AID 624489); assay type: functional, cell-based;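 further: actives are compounds lowering A375 viability meaning general cytotoxicity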
[26] = HepG2 cell cytotoxicity, dose response, cytotoxicity control, ATP luminescence, cherry-pick, set 6 (AID 1053125); assay type: functional, cell-based
cells = settings: HEK293;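 further: cells exposed to compound for 48 hours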
[27] = MITF Orthogonal Assay: SK-MEL-5 CTG Assay Measured in Cell-Based System Using Plate Reader - 2084-02_Inhibitor_Dose_DryPowder_Activity_Set7.; assay type: functional
[28] = MITF: Counter assay: A375 proliferation Measured in Cell-Based System Using Plate Reader - 2084-03_Inhibitor_Dose_DryPowder_Activity_Set8.; assay type: functional; settings: A-375
[29] = TRPM1 promoter luciferase reporter signal decrease, dose response, MITF inhibitor project, cell-based, SK-MEL-5, dry powder, set 8 (AID 624430); assay type: functional
[30] = inhibitors of HIV Env-driven cell fusion, dose response, cherry-pick (AID 652057); assay type: functional, cell-based
HEK293 = assay: HEK293T cell cytotoxicity, dose response, cytotoxicity control, ATP luminescence, cherry-pick samples (AID 687005); assay type: functional, cell-based; settings: Homo sapiens;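 further: cells exposed to compound for 48 hours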
[31] = inhibitors of clade B AD8 Env fusion, dose response, cell-based, cherry-pick (AID 652062); assay type: functional;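 further: luciferase signal from cell-cell fusion driven by HIV-1 clade B AD8 Env; potency is for inhibitors of fusion seen as a drop in luminescence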
[32] = HIV Env cell-cell fusion inhibitors, dose response, HIV entry, plate reader, dry powder (AID 687023); assay type: functional, cell-based
[33] = HEK293 Cytotoxicity Assay Measured in Cell-Based System Using Plate Reader - 7071-01_Inhibitor_Dose_CherryPick_Activity_Set2.; assay type: functional
[34] = system: Streptococcus sp. 'group A'; assay: growth inhibition of control SK(-) GAS strain, dose response, counter-screen for streptokinase expression inhibitor project, luminescence, kanamycin, BacTiterGlo, confirmation (AID 1900); assay type: functional, organism-based
Streptokinase A = target: T2, Streptokinase A (Streptococcus pyogenes serotype M1, UniProt P10520); assay: S. pyogenes streptokinase expression inhibitors, potency, dose response, plasminogen activation absorbance, OD405 (AID 1914); assay type: functional, Streptococcus pyogenes M1 GAS;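 further: secreted streptokinase activity via plasminogen activation per viability signal from cell pellet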
T2 sequence (P10520 whole entry): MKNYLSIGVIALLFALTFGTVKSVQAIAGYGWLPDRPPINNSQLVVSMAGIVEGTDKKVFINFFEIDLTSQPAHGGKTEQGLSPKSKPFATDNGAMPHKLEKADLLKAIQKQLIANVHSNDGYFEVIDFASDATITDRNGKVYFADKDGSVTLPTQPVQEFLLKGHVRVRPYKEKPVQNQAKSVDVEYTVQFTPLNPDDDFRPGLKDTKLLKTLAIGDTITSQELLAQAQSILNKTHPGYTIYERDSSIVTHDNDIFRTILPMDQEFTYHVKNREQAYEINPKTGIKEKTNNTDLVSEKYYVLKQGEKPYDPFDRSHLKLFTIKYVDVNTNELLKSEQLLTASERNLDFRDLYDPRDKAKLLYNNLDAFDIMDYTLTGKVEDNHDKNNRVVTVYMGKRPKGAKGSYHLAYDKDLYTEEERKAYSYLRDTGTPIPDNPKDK

Streptococcus = assay: Group A Streptococcus viability loss, dose response, counter-screen for streptokinase expression inhibitor project, luminescence, BacTiterGlo (AID 1915); assay type: functional, organism-based;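 further: potency for reduction of bacterial viability or growth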
[35] = Shn3 3'UTR reporter inhibitors, dose response, cell-based, Clone20 osteoblasts, firefly luciferase, cherry-picked (AID 624132); assay type: functional;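 further: firefly luciferase luminescence from reporter carrying the Shn3 3'UTR in osteoblasts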
[36] = HepG2 cell cytotoxicity, dose response, cytotoxicity control for Shn3 inhibitor project, CellTiter-Glo, cherry-picked (AID 624134); assay type: functional, cell-based
[37] = control 3'UTR Renilla luciferase suppression, dose response, counter-screen for Shn3 inhibitor project, cell-based, Clone20-Shn3RL, cherry-picked (AID 624133); assay type: functional
Fatty acid synthase [38] = target: T3, Fatty acid synthase (Homo sapiens, UniProt P49327); assay: FAS thioesterase domain inhibitors, dose response, biochemical, endpoint fluorescence intensity, uHTS hits (AID 624327); assay type: functional;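 further: fluorescence from hydrolysis of an O-methyl fluorescein acyl ester substrate by the enzyme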
Fatty acid synthase [39] = target: T3, Fatty acid synthase; assay: FAS thioesterase domain inhibitors, dose response, biochemical, kinetic fluorescence intensity (AID 624326); assay type: functional;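 further: rate of fluorescence rise from hydrolysis of a fluorogenic O-methyl fluorescein ester substrate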
[40] = non-specific cell cytotoxicity, dose response, cytotoxicity control for PAX8 inhibitor project, plate reader, dry powder samples (AID 743021); assay type: functional, cell-based
[41] = target: T4, Heat shock factor protein 1 (Mus musculus, UniProt P38532); assay: HSF1 potentiators in luciferase reporter cells, confirmation, cell-based, NIH3T3, luminescence, dose retest (AID 435004); assay type: functional;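 further: stress induced by proteasome inhibitor MG132 added 30 min after compound; luciferase reporter driven by HSF1 response element in NIH3T3 cells; actives raise luminescence as potentiators of the MG132 stress response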
T4 sequence (P38532 whole entry): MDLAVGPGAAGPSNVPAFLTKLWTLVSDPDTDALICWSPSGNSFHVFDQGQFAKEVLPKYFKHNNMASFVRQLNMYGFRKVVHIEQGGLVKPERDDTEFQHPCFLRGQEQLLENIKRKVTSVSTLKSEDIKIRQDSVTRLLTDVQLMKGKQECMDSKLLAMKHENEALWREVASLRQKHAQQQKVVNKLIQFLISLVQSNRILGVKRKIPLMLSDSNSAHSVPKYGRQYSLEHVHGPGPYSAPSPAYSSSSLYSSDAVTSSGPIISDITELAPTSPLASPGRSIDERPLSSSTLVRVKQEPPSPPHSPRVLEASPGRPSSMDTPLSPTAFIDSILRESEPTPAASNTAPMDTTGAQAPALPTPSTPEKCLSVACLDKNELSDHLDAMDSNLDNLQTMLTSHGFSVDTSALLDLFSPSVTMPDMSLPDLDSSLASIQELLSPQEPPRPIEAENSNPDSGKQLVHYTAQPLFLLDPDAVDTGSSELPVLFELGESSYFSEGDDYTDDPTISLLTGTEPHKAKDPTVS

[42] = target: COUP transcription factor 2 (Homo sapiens, UniProt P24468); assay: Luminescence-based cell-based high throughput dose response assay to identify inhibitors of COUP-TFII (NR2F2).; assay type: functional;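 further: HEK293 cells transiently cotransfected with COUP-TFII expression vector and reporter; luciferase reporter luminescence driven by COUP-TFII from the pX2-168 reporter plasmid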
[43] = NIH/3T3 fibroblast cytotoxicity, dose response, cytotoxicity control, cell-based, plate reader, dry powder, set 2 (AID 652280); assay type: functional; settings: NIH3T3
[44] = T. cruzi growth inhibition in host cells, dose response, cell-based, plate reader, dry powder, set 2 (AID 652275); assay type: functional
[45] = growth inhibition of intracellular T. cruzi, dose response, cell-based, plate reader, dry powder samples (AID 651845); assay type: functional
[46] = NIH/3T3 fibroblast cytotoxicity, dose response, cytotoxicity control, cell-based, dry powder samples (AID 651844); assay type: functional; settings: NIH3T3
[47] = HEK293T cell cytotoxicity, dose response, cytotoxicity control, luminescence plate reader, powder samples, set 4 (AID 651863); assay type: functional, cell-based; settings: HEK293

Paired box protein Pax-8, sequence (Q06710 whole entry): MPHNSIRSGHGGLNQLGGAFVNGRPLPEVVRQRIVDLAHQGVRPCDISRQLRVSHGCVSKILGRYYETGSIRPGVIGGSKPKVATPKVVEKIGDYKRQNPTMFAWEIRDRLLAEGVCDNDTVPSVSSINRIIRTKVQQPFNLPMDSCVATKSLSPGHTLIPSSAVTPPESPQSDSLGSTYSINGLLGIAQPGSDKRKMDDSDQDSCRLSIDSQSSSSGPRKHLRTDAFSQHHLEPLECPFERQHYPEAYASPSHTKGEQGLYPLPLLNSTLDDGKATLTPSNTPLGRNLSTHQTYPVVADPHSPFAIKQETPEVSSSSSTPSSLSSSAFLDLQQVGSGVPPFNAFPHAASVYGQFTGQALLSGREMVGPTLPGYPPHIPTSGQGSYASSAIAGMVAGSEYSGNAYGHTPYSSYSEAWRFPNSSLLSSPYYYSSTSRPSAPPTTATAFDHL
T3 sequence (P49327 whole entry, the tested form may be a part): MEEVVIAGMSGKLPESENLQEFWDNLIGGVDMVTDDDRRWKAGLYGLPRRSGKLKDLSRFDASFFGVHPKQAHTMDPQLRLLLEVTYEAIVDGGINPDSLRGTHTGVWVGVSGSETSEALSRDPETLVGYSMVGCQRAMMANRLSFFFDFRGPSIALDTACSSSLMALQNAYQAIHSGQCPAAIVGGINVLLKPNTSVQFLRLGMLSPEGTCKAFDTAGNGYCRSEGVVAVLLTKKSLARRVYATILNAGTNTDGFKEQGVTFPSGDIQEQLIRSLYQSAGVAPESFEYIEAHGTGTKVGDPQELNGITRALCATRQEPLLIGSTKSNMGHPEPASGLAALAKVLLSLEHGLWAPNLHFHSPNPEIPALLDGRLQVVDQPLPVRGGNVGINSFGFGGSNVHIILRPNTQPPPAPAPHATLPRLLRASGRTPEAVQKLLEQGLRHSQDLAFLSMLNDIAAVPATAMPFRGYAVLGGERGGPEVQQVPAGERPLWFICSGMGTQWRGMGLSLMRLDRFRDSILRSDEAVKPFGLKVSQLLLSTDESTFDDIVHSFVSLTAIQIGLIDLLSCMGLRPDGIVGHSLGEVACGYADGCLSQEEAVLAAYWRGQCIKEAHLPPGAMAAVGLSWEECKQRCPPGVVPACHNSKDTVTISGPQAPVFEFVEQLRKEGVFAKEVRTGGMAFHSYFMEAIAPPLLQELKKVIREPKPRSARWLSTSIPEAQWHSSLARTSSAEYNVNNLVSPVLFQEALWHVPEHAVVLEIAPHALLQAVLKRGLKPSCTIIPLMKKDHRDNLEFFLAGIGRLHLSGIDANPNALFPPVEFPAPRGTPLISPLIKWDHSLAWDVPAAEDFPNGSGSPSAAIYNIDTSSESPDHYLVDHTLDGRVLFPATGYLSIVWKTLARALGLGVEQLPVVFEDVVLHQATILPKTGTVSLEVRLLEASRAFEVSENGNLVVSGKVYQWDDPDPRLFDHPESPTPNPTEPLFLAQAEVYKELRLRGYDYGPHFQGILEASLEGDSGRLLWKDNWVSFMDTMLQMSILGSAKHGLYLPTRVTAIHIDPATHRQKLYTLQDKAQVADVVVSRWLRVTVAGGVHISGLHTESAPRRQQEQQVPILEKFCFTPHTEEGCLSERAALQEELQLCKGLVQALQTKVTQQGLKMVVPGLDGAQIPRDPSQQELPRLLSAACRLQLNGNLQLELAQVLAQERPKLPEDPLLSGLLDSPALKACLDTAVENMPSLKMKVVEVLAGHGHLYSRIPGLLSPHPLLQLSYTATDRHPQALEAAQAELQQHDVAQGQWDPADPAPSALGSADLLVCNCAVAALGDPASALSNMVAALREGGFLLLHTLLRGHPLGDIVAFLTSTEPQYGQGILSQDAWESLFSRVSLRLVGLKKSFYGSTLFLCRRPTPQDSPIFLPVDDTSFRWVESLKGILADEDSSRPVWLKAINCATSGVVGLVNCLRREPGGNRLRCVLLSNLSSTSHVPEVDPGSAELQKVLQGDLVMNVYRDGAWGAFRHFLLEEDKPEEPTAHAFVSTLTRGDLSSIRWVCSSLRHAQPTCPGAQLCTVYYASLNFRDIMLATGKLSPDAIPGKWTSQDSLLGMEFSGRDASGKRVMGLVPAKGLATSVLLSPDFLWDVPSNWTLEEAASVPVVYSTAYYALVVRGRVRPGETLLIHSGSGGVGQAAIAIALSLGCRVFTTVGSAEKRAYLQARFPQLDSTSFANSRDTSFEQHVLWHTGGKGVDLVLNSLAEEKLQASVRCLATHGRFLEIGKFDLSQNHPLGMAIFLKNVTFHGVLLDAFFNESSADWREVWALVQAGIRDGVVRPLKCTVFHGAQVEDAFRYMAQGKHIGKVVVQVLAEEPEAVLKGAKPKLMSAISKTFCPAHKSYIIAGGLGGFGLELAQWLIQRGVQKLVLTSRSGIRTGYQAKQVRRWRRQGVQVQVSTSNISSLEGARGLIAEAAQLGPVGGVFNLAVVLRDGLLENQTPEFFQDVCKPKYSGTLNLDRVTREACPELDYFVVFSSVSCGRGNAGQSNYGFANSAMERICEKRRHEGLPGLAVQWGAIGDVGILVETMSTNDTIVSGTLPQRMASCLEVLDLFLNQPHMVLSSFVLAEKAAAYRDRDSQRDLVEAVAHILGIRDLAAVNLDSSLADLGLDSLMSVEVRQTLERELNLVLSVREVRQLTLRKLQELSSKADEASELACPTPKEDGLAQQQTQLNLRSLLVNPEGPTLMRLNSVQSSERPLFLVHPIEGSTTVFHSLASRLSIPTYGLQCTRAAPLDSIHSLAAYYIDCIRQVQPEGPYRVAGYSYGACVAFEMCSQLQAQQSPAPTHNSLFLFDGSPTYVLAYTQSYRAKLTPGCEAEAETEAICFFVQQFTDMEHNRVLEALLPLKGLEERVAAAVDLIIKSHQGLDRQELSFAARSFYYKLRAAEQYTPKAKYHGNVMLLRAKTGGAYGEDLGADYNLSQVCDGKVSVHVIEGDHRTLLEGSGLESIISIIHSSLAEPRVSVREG
T1 sequence (P78536 whole entry, the tested form may be a part): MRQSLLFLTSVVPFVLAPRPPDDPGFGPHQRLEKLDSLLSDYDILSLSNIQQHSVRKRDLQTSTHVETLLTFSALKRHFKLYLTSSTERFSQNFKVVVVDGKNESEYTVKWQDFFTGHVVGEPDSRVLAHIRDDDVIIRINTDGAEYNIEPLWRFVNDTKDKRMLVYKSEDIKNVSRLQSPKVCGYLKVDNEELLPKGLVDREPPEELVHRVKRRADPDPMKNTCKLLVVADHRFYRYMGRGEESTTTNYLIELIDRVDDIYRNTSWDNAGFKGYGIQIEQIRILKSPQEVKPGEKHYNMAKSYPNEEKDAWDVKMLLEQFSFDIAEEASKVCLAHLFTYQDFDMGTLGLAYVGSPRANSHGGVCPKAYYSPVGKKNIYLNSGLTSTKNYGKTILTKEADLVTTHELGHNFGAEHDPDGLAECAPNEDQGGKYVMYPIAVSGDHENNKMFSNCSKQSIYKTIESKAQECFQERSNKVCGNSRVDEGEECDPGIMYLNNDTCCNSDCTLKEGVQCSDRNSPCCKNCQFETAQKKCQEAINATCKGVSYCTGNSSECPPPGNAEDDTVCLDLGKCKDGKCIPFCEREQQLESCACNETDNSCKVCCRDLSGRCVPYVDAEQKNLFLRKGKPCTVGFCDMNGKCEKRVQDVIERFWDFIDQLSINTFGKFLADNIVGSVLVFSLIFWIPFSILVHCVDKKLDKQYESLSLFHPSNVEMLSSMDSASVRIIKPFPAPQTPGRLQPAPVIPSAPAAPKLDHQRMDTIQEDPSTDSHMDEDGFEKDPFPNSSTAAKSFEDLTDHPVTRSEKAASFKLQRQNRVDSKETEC
COUP transcription factor 2, sequence (P24468 whole entry): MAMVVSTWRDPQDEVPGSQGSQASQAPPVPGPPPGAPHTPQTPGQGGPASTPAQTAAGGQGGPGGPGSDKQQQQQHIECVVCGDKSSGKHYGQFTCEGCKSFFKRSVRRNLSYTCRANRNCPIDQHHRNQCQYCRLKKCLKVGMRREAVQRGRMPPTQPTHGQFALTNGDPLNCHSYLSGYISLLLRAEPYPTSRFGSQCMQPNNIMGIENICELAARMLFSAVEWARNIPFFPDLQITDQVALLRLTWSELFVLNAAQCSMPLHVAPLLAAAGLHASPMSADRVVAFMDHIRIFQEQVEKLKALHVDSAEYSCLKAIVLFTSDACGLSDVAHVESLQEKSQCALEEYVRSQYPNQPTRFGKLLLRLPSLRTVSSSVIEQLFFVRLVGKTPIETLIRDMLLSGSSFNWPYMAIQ
fMet-Leu-Phe receptor, sequence (P21462 whole entry): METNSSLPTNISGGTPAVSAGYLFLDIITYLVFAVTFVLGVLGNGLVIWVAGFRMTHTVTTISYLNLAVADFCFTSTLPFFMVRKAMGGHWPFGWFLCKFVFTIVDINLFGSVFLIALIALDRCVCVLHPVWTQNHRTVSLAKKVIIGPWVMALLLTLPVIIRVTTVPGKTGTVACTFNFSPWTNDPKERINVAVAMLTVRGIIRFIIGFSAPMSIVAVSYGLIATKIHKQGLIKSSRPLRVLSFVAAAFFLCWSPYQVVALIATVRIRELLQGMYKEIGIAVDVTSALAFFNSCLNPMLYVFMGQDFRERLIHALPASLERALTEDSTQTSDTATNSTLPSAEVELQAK

COC(=O)C1=C(C)N(Cc2cccc(C(F)(F)F)c2)C(NCc2ccc3c(c2)OCO3)=NC1c1ccc(F)cc1 (stereo not given)
inactive: IC50 [1] > 69.5 µM | IC50 [2] > 69.5 µM

Cc1cccc2sc(N(CCCN(C)C)C(=O)CCS(=O)(=O)c3ccccc3)nc12
active: IC50 [3] 6.59 µM | AC50 (Paired box protein Pax-8) 6.18 µM | AC50 [4] 35.7 µM | AC50 [5] 20.3 µM | AC50 [6] 21.8 µM | AC50 [7] 6.9 µM | AC50 [8] 8.92 µM | AC50 [9] 43.1 µM | AC50 [10] 11.5 µM | AC50 [11] 34.8 µM | AC50 [12] 8.43 µM | AC50 [13] 17.1 µM | AC50 [14] 7.67 µM

CCOC(=O)c1c(NC(=O)CN2C(=O)NC(C)(c3ccc(OC(F)F)cc3)C2=O)sc(C)c1C (stereo not given)
inactive: IC50 [15] > 69.5 µM | IC50 [16] > 69.5 µM

CCCC(=O)Nc1cc(-c2cn3cccnc3n2)ccc1OC
inactive: Ki (fMet-Leu-Phe receptor) > 66.7 µM

COCCSc1nnc(-c2ccccc2)o1
active: IC90 [17] 4 µM | IC90 [18] 4 µM | IC90 [19] 16 µM

C[C@H]1CN([C@@H](C)CO)C(=O)c2cccc(NC(=O)Nc3ccc(C(F)(F)F)cc3)c2O[C@@H]1CN(C)C(=O)Nc1cccc2ccccc12
active: AC50 [20] 4.5 µM | AC50 [21] 25 µM | AC50 [22] 19.8 µM | AC50 [23] 29.7 µM

O=C1C(Nc2ccccc2)=C(N2CCOCC2)C(=O)c2ccccc21
active: AC50 [25] 65.7 µM
inactive: AC50 [24] > 70 µM | AC50 ([25]; A-375) > 70 µM

Cc1ccc(OCC(=O)NNc2c3ccccc3nc3ccccc23)cc1
active: AC50 (cells) 27.7 µM
inactive: AC50 [26] > 52 µM

O=C1C=C(Nc2ccccc2Cl)C(=O)c2ccccc21
active: AC50 [27] 0.172 µM | AC50 [29] 5.41 µM
inactive: AC50 [28] > 70 µM

C[C@H]1CCCCO[C@@H](CN(C)Cc2ccncc2)[C@@H](C)CN([C@@H](C)CO)C(=O)c2cc(NC(=O)Nc3ccccc3)ccc2O1
active: AC50 [30] 0.764 µM | AC50 (HEK293) 33.2 µM | AC50 [31] 32.9 µM | AC50 [32] 10.7 µM | AC50 [33] 33.2 µM

CCOc1ccccc1NC(=O)c1nc(S(=O)(=O)Cc2ccccc2)ncc1Cl
active: EC50 [34] 12.5 µM | EC50 (Streptokinase A) 1.98 µM | EC50 (Streptococcus) 13.7 µM | AC50 [35] 0.376 µM | AC50 [36] 16.9 µM | AC50 [37] 6.36 µM | IC50 (Fatty acid synthase [38]) 7.85 µM | IC50 (Fatty acid synthase [39]) 7.5 µM | AC50 (Paired box protein Pax-8) 7.1 µM | AC50 [40] 21.7 µM

Cc1ccc(-n2nc3c(=O)n(C(C)C(=O)NCc4ccccc4Cl)nc(C)c3c2C)cc1 (stereo not given)
inactive: EC50 [41] > 260 µM | IC50 [42] 11.9 µM

CC(C)N1C[C@H](C)[C@@H](CN(C)Cc2ccc(Oc3ccccc3)cc2)Oc2c(NC(=O)C3CCNCC3)cccc2C1=O
active: AC50 [43] 8.99 µM | AC50 [44] 0.983 µM | AC50 [45] 0.983 µM | AC50 [46] 8.99 µM

Cc1cc(C)c(S(=O)(=O)Nc2ncnc3ccccc23)c(C)c1
active: AC50 [47] 44.2 µM
